# Measurements published in patent publication US20220153754A1 (JANSSEN SCIENCES IRELAND UNLIMITED COMPANY, priority 2019, published 2022).
# Test system: HBV
# Experiment: HBV replication inhibition assay (BDNA assay)
# Assay type: cell-based
# Conditions: Hepatitis B virus, HepG2.2.15, 144 h, HepG2.2.15 cells, incubated with compound for 6 days, encapsidated HBV DNA from supernatant detected by branched DNA QuantiGene assay
# Protocol: HBV replication inhibition by the disclosed compounds were determined in cells infected or transfected with HBV or cells with stably integrated HBV, such as HepG2.2.15 cells (Sells et al. 1987). In this example, HepG2.2.15 cells were maintained in cell culture medium containing 10% fetal bovine serum (FBS), Geneticin, L-glutamine, penicillin and streptomycin. HepG2.2.15 cells were seeded in 96-well plates at a density of 40,000 cells/well and were treated with serially diluted compounds at a final DMSO concentration of 0.5% either alone or in combination by adding drugs in a checker box format. Cells were incubated with compounds for three days, after which medium was removed and fresh medium containing compounds was added to cells and incubated for another three days. At day 6, supernatant was removed and treated with DNase at 37° C. for 60 minutes, followed by enzyme inactivation at 75° C. for 15 minutes. Encapsidated HBV DNA was released from the virions and covalently linked HBV polymerase by incubating in lysis buffer (Affymetrix QS0010) containing 2.5 μg proteinase K at 50° C. for 40 minutes. HBV DNA was denatured by addition of 0.2 M NaOH and detected using a branched DNA (BDNA) QuantiGene assay kit according to manufacturer recommendation (Affymetrix). HBV DNA levels were also quantified using qPCR, based on amplification of encapsidated HBV DNA extraction with QuickExtraction Solution (Epicentre Biotechnologies) and amplification of HBV DNA using HBV specific PCR probes that can hybridize to HBV DNA and a fluorescently labeled probe for quantitation. In addition, cell viability of HepG2.2.15 cells incubated with test compounds alone or in combination was determined by using CellTitre-Glo reagent according to the manufacturer protocol (Promega). The mean background signal from wells containing only culture medium was subtracted from all other samples, and percent inhibition at each compound concentration was calculated by normalizing to signals from HepG2.2.15 cells treated with 0.5% DMSO using equation E1.
# where DMSOave is the mean signal calculated from the wells that were treated with DMSO control (0% inhibition control) and Xi is the signal measured from the individual wells. EC50 values, effective concentrations that achieved 50% inhibitory effect, were determined by non-linear fitting using Graphpad Prism software (San Diego, Calif.) and equation E2.
# where Y represents percent inhibition values and X represents the logarithm of compound concentrations.
# Selected disclosed compounds were assayed in the HBV replication assay (BDNA assay), as described above, and a representative group of these active compounds is shown in Table 3.
row,SMILES,EC50
1,"N#Cc1cc(NC(=O)N2CCc3nn4c(c3C2)-c2nnccc2CCC4)ccc1F [Example 24, N-(3-Cyano-4-fluorophenyl)-6,7,10,11-tetrahydro-5H-pyridazino[3,4-c]pyrido[4′,3′:3,4]pyrazolo[1,5-a]azepine-12(13H)-carboxamide]",910 nM
2,"N#Cc1cc(NC(=O)N2CCc3nn4c(c3C2)-c2nocc2CC(CO)C4)ccc1F (stereo not drawn) [Example 3, N-(3-Cyano-4-fluorophenyl)-5-(hydroxymethyl)-5,6,9,10-tetrahydro-4H-isoxazolo[3,4-c]pyrido[4′,3′:3,4]pyrazolo[1,5-a]azepine-11(12H)-carboxamide]",23 nM
3,"Cn1ncc2c1-c1c3c(nn1CCC2)CCN(C(=O)Nc1ccc(F)c(Cl)c1)C3 [Example 30, N-(3-Chloro-4-fluorophenyl)-1-methyl-4,5,6,9,10,12-hexahydropyrazolo[3,4-c]pyrido[4′3′:3,4]pyrazolo[1,5-a]azepine-11(1H)-carboxamide]",3400 nM
4,"O=C(Nc1ccc(F)c(C(F)(F)F)c1)N1CCc2nn3c(c2C1)-c1nocc1C[C@@H](COCC(F)F)C3 (single isomer, unassigned) [Example 8, (5R*)-5-((2,2-Difluoroethoxy)methyl)-N-(4-fluoro-3-(trifluoromethyl)phenyl)-5,6,9,10-tetrahydro-4H-isoxazolo[3,4-c]pyrido[4′,3′:3,4]pyrazolo[1,5-a]azepine-11(12H)-carboxamide]",26 nM
5,"C=C1Cc2conc2-c2c3c(nn2C1)CCN(C(=O)Nc1ccc(F)c(C#N)c1)C3 [Example 1, N-(3-Cyano-4-fluorophenyl)-5-methylene-5,6,9,10-tetrahydro-4H-isoxazolo[3,4-c]pyrido[4′,3′:3,4]pyrazolo[1,5-a]azepine-11(12H)-carboxamide]",64 nM
6,"CC1Cc2conc2-c2c3c(nn2C1)CCN(C(=O)Nc1ccc(F)c(C#N)c1)C3 (stereo not drawn) [Example 13, N-(3-Cyano-4-fluorophenyl)-5-methyl-5,6,9,10-tetrahydro-4H-isoxazolo[3,4-c]pyrido[4′,3′:3,4]pyrazolo[1,5-a]azepine-11(12H)-carboxamide]",52 nM
7,Cc1nnc2n1CCCn1nc3c(c1-2)CN(C(=O)Nc1ccc(F)c(Cl)c1)[C@H](C)C3 [Example 23],> 4000 nM
8,"O=C(Nc1ccc(F)c(Cl)c1)N1CCc2nn3c(c2C1)-c1nocc1CCC3 [Example 31, N-(3-Chloro-4-fluorophenyl)-5,6,9,10-tetrahydro-4H-isoxazolo[3,4-c]pyrido[4′,3′:3,4]pyrazolo[1,5-a]azepine-11(12H)-carboxamide]",9 nM
9,"C[C@@H]1Cc2nn3c(c2CN1C(=O)Nc1ccc(F)c(C(F)(F)F)c1)-c1ncccc1CCC3 [Example 17, (11R)—N-(4-Fluoro-3-(trifluoromethyl)phenyl)-11-methyl-6,7,10,11-tetrahydro-5H-pyrido[2,3-c]pyrido[4′,3′:3,4]pyrazolo[1,5-a]azepine-12(13H)-carboxamide]",220 nM
